How the values were obtained:
Format in all cases: cell-based, Vibrio cholerae O1
V. cholerae O1 Matlab I = assay: Sensitivity to polymyxin B (50U), Matlab I; details: 2 strains
From the text: (§1) […]. The basis of a retrospective examination of these strains was their unusual response to polymyxin B (50U), chicken cell agglutination (CCA), Voges-Proskauer (VP) reaction, and sensitivity to group IV and V phages, all of which are phenotypic traits commonly used to differentiate between the classical and El Tor biotypes. The 24 strains were reexamined for the above phenotypic characteristics by standard procedures.
(§2) We examined the commonly used phenotypic traits used to distinguish between the El Tor and classical biotypes of V. cholerae and differentiated the 24 strains into three types (Table 1), which we classified as Matlab types I, II, and III. Matlab type I included two strains belonging to the Inaba serotype that were resistant to both the El Tor-specific group IV and the classical biotype specific group V phages, negative by the CCA and VP tests (both are classical traits), and resistant to polymyxin B (an El Tor trait).

V. cholerae O1 Matlab II = assay: Sensitivity to polymyxin B (50U), Matlab II; details: 1 strain
From the text: as §1, §2

[1] = test system: V. cholerae O1 Matlab III; assay: Sensitivity to polymyxin B (50U), Matlab III; details: 21 strains
From the text: as §1, §2

polymyxin B
Sensitivity to polymyxin B (50U) (V. cholerae O1 Matlab I): resistant
Sensitivity to polymyxin B (50U) (V. cholerae O1 Matlab II): sensitive
Sensitivity to polymyxin B (50U) [1]: typical of the El Tor biotype

From US20060171966A1, “Variants of vibrio cholerae 01 biotype e1 tor with attributes of classical biotype” (priority 2002, published 2006)
